Here are results for four compounds from US20050282786A1, “Method for reducing c-rective protein levels with non-antibacterial tetracycline formulations” (priority 2002, published 2005).

Structures are written as SMILES. Several values for one entry are separate records, joined by “and”; a condition that tells them apart may be missing. Identical values can stand only once. Counter-ions that a name gives are not always drawn.

Data set [1] can be described thus: CMT-3 serum levels in humans. It counts as in vivo, human. Particulars: dose of about 10 to about 20 mg/day. As to the method: Non-antibacterial tetracycline compounds can be used in higher amounts than antibacterial tetracyclines, while avoiding the indiscriminate killing of bacteria, and the emergence of resistant bacteria. For example, 6-demethyl-6-deoxy-4-dedimethylaminotetracycline (CMT-3) may be administered in doses of about 10 to about 200 mg/day, or in amounts that result in serum levels in humans of about 1.0 μg/ml to about 10 μg/ml. For example, a dose of about 10 to about 20 mg/day produces serum levels in humans of about 1.0 μg/ml.

Another data set relates to C-reactive protein (CRP). The data set can be described thus: Prospective randomized six-month study of low-dose doxycycline versus placebo: C-reactive protein levels in patients after acute coronary syndrome. It counts as in vivo, human. Particulars: for 6-Month CRP level: after six months of therapy, P<0.05 vs baseline; for 6-Month CRP level / Baseline CRP level: mean ± S.E.M.; for Reduction Due To Treatment (CRP): six months vs baseline; for Baseline CRP level / Baseline CRP: study entry; for Six Month CRP: six months. The protocol:
A prospective, randomized study was conducted over six (6) months to investigate the effectiveness of low-dose doxycycline (LDD) versus placebo, in the prevention of subsequent plaque rupture events in patients enrolled after an initial acute coronary syndrome.
Biochemical markers of inflammation were assessed at study entry and after six (6) months of therapy in a subset of patients. A total of thirty (30) patients completed the study of whom thirteen (13) were randomized to placebo and seventeen (17) to LDD. There were no significant differences in age, male gender, hypertension, diabetes, smoking, previous cardiac history, extent of coronary disease, presentation with acute myocardial infarction or unstable angina, or percutaneous coronary intervention between LDD and placebo treated patients.
At six months clinical follow-up, there was no difference in the composite endpoint of cardiovascular death, myocardial infarction or troponin-positive unstable angina in LDD compared to placebo treated patients. […] In placebo-treated patients, CRP was 5.2 μg/ml at study entry and 4.9 μg/ml at six months (P=not significant (n.s.)).
Patients with higher baseline CRP levels were reduced by 58% from 7.2 μg/ml to 3.0 μg/ml (P<0.001). In placebo-treated patients with higher baseline CRP, CRP levels were decreased by 23% (7.1 μg/ml to 5.5 μg/ml).

The conditions of data set [2]: single dose of two 100 mg tablets, adult human; cited from earlier work.
For data set [3] the following is noted: 250 mg every six hours over a twenty-four hour period; cited from earlier work.
The mark [4] stands for this setting: all LDD patients (n = 17), listed as Low-Dose Doxycycline.
Where [5] appears, read: patients with higher CRP (>5 μg/ml).
[6] abbreviates: patients with lower baseline CRP (≦5 μg/ml).

In the case of `NC(=O)C1=C(O)CC2CC3Cc4cccc(O)c4C(=O)C3=C(O)C2(O)C1=O` (stereo not drawn) [CMT-3, 4-dedimethylaminosancycline], the “serum levels in humans” value in data set [1] was “about 1.0 μg/ml”.
On to `C[C@H]1c2cccc(O)c2C(=O)C2=C(O)[C@]3(O)C(=O)C(C(N)=O)=C(O)[C@@H](N(C)C)[C@@H]3[C@@H](O)[C@@H]21` [LDD, doxycycline], for which the “6-Month CRP level” value in the data set on C-reactive protein (CRP) (all LDD patients (n = 17)) amounted to 2.6 µg/mL; with C-reactive protein (CRP) (setting [4]) it was 2.6 ± 0.4 µg/mL. For the same compound, the “Reduction Due To Treatment (CRP)” value came to 46% in the data set with C-reactive protein (CRP) (all LDD patients (n = 17)), 45% with C-reactive protein (CRP) (setting [4]), 58% in the data set on C-reactive protein (CRP) (setting [5]) and 23% in the data set on C-reactive protein (CRP) (setting [6]). The figures for the “Baseline CRP level” value in the data set with C-reactive protein (CRP) (all LDD patients (n = 17)) and in the data set with C-reactive protein (CRP) (setting [4]) were 4.8 µg/mL and 4.8 ± 0.6 µg/mL, respectively. The “Six Month CRP” value was 3.0 μg/ml and 3.0 ± 0.7^a μg/ml with C-reactive protein (CRP) (patients with higher CRP (>5 μg/ml), P<0.001 vs baseline); 2.3 μg/ml and 2.3 ± 0.5^b μg/ml in the data set with C-reactive protein (CRP) (patients with lower baseline CRP (≦5 μg/ml), n.s. vs baseline). For the same compound, the “Baseline CRP” value in the data set on C-reactive protein (CRP) (setting [5]) was 7.2 µg/mL and 7.2 ± 0.6 µg/mL; in the data set with C-reactive protein (CRP) (setting [6]), 3.0 µg/mL and 3.0 ± 0.4 µg/mL.
Turning to `CN(C)c1ccc(O)c2c1C[C@H]1C[C@H]3[C@H](N(C)C)C(O)=C(C(N)=O)C(=O)[C@@]3(O)C(O)=C1C2=O` [minocycline HCl], in data set [2], the “minocycline serum level, average” value was 2.24 µg/mL.
Consider `CN(C)[C@@H]1C(O)=C(C(N)=O)C(=O)[C@@]2(O)C(O)=C3C(=O)c4c(O)cccc4[C@@](C)(O)[C@H]3C[C@@H]12` [tetracycline HCl], for which, in data set [3], the peak plasma concentration entry is “approximately 3 μg/ml”.
